From patent US10925856B2, “Methods and compositions involving bucindolol for the treatment of atrial fibrillation” (priority 2018, dated 2021)
Where two headings read alike, the source gives them in different places.

Legend:
[1] = system: patients with HF and/or AF; conditions: cited from earlier work
[2] = biological target: T1, human β1-adrenergic receptor (Homo sapiens, UniProt P08588, G389R); assay: Estimated β1-AR receptor occupancy from plasma concentration and KD; conditions: 12 weeks trough plasma concentration
T1 construct: from tissue; host or cells: notional myocardial receptor of GENETIC-AF patients; no receptor preparation was assayed

[3] = system: advanced HFrEF patients (ADRB1 Arg389Gly / ADRA2C Ins322-325Del genotypes); assay: BEST trial and DNA (pharmacogenetic) substudy: bucindolol vs. placebo; format: in vivo, human
Source text: The relationship of the ADRA2C Ins/Del polymorphism to systemic NE levels and clinical outcomes was investigated as part of the BEST trial AR polymorphism substudy.
Variables identified in the GENETIC-AF Statistical Analysis Plan (SAP) that were potential predictors of the primary endpoint were investigated by precision therapeutic phenotyping. Hypothesis-based (e.g., AF duration, AF type, LVEF, NYHA Class, NT-proBNP, norepinephrine) and hypothesis-free (e.g. HF duration, initial study dose) elements were included in the multivariate methodology, which was applied to both obvious and non-obvious data to identify a therapeutic phenotype appropriate for investigating in Phase 3. To examine the relationship between HF duration and bucindolol effectiveness for reducing HF events, we analyzed data from the BEST trial (14) and pharmacogenetic substudy (17) for the endpoint of time to all-cause mortality or first HF hospitalization (ACM/HFH).

[4] = system: patients with HF and/or AF; assay: Literature β-blocker trials and meta-analyses for AF prevention / recurrence; format: in vivo, human
[5] = biological target: human β1-adrenergic receptor (Homo sapiens, UniProt P08588); conditions: cited from earlier work
[6] = system: advanced HFrEF patients (ADRB1 Arg389Gly / ADRA2C Ins322-325Del genotypes); conditions: cited from earlier work
[7] = BEST ADRB1 389Gly Carriers n = 482
[8] = BEST ADRB1 Arg389Arg, free of AF at randomization
[9] = BEST ADRB1 Arg389Arg, free of AF at randomization, bucindolol vs placebo
[10] = BEST DNA substudy all genotypes n = 1040
[11] = BEST, {ADRA2C Del carrier and ADRB1 Arg389Arg}
[12] = BEST, {ADRA2C Del carriers and ADRB1 389Gly carriers}

T1 sequence (P08588 whole entry G389R): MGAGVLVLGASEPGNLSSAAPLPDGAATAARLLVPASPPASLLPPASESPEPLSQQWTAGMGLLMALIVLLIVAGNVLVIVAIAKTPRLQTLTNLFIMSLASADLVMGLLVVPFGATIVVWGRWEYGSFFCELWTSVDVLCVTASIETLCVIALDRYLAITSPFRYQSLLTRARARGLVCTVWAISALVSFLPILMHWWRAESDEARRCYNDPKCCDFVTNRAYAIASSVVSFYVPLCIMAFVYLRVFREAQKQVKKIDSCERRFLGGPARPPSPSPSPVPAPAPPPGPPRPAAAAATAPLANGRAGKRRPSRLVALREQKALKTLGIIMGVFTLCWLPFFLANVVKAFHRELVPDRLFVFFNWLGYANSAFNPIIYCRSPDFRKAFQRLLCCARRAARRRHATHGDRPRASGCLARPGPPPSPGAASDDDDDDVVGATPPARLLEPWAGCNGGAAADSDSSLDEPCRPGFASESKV
Sequence of human β1-adrenergic receptor (Homo sapiens, UniProt P08588) (P08588 whole entry): as the sequence (P08588 whole entry G389R) above, with R389G counted along it

Which “Lowering of AF risk” value ([1]; HFrEF (MERIT-HF)) does the source give for `COCCc1ccc(OCC(O)CNC(C)C)cc1` (stereo not drawn) [metoprolol, metoprolol succinate, reference compound] here?
Its value is 48%.

And the “Incidence of AF recurrence” value ([1]; persistent AF, ECV to SR, end of 6-month follow-up)?
The value was 52%.

Which β1-AR receptor occupancy ([2]; CYP2D6 EMs) does the source give for `CC(C)(Cc1c[nH]c2ccccc12)NCC(O)COc1ccccc1C#N` (stereo not drawn) [bucindolol, 2-(3-(1-(1H-indol-3-yl)-2-methylpropan-2-ylamino)-2-hydroxypropoxy)benzonitrile] here?
The β1-AR receptor occupancy was 85.2%.

What about the β1-AR receptor occupancy ([2]; CYP2D6 IMs) of the same compound?
The β1-AR receptor occupancy was 94.6%.

And the β1-AR receptor occupancy ([2]; CYP2D6 PMs)?
Its β1-AR receptor occupancy is 99.0%.

And the “Events/patients (rate), time to AF/AFL/ACM” value (from here on “Events/patients (rate), time”) [3, 7]?
Its value is “(26.8%)”.

And the “Events/patients, time to AF/AFL/ACM” value [3, 7]?
The value was 61/228.

What about the “Hazard Ratio (95% C.I.), time to AF/AFL/ACM” value ([3]; BEST ADRB1 389Gly Carriers, bucindolol vs placebo) of the same compound?
Its value is 0.95.

And the “Events/patients (rate), time” value ([3]; BEST ADRB1 Arg389Arg n = 435)?
Its value is “(18.5%)”.

And the “Events/patients, time to AF/AFL/ACM” value ([3]; BEST ADRB1 Arg389Arg n = 435)?
The value was 43/232.

And the ACM events [3, 8]?
The ACM events was 33.

What about the “ACM events/pt (%)” value [3, 8] of the same compound?
The value was 14.0%.

And the ACM/CVH events [3, 8]?
Its ACM/CVH events is 106.

What about the “ACM/CVH events/pt (%)” value [3, 8] of the same compound?
Its value is 45.1%.

And the ACM/HFH events [3, 8]?
The ACM/HFH events was 82.

And the “ACM/HFH events/pt (%)” value [3, 8]?
Its value is 34.9%.

What about the CVH events [3, 8] of the same compound?
Its CVH events is 88.

And the “CVH events/pt (%)” value [3, 8]?
The value was 37.5%.

And the CVM events [3, 8]?
The CVM events was 25.

What about the “CVM events/pt (%)” value [3, 8] of the same compound?
Its value is 10.6%.

What about the CVM/HFH events [3, 8] of the same compound?
The CVM/HFH events was 76.

And the “CVM/HFH events/pt (%)” value [3, 8]?
The value was 32.3%.

What about the HFH events [3, 8] of the same compound?
The HFH events was 65.

And the “HFH events/pt (%)” value [3, 8]?
The value was 27.7%.

And the “ACM HzR” value [3, 9]?
The value was 0.61.

And the “ACM/CVH HzR” value [3, 9]?
The value was 0.72.

And the “ACM/HFH HzR” value [3, 9]?
Its value is 0.69.

And the “CVH HzR” value [3, 9]?
The value was 0.69.

What about the “CVM HzR” value [3, 9] of the same compound?
Its value is 0.54.

And the “CVM/HFH HzR” value [3, 9]?
Its value is 0.66.

And the “HFH HzR” value [3, 9]?
Its value is 0.70.

And the “Hazard Ratio (95% C.I.), time to AF/AFL/ACM” value ([3]; BEST ADRB1 Arg389Arg, bucindolol vs placebo)?
The value was 0.49.

And the “Events/patients (rate), time” value [3, 10]?
Its value is “(22.6%)”.

And the “Events/patients, time to AF/AFL/ACM” value [3, 10]?
The value was 104/460.

And the “Hazard Ratio (95% C.I.), time to AF/AFL/ACM” value ([3]; BEST DNA substudy all genotypes, bucindolol vs placebo)?
Its value is 0.70.

And the “Events/patients (rate), time” value ([3]; BEST Entire Cohort n = 2708)?
Its value is “(33.6%)”.

And the “Events/patients, time to AF/AFL/ACM” value ([3]; BEST Entire Cohort n = 2708)?
The value was 401/1193.

What about the “Hazard Ratio (95% C.I.), time to AF/AFL/ACM” value ([3]; BEST Entire Cohort, bucindolol vs placebo) of the same compound?
The value was 0.80.

And the “Predicted relative effect size in favor of bucindolol vs. metoprolol” value ([4]; RES = Ln HzR1/Ln HzR2, prevention of AF in HFrEF)?
Its value is 2.1 fold.

And the “Effect size in a direct comparison of bucindolol to metoprolol (estimated)” value ([4]; from relative effect size)?
Its value is 51%.

What about the “Risk ratio in a direct comparison of bucindolol to metoprolol (estimated)” value ([4]; from relative effect size) of the same compound?
The value was 0.49.

What about the “KD (KA in the occupancy formula), dissociation constant for human β1-ARs” value [5] of the same compound?
Its value is 3.6 nM.

What about the “Reduction in NE” value ([6]; BEST trial at 12 weeks) of the same compound?
Its value is 75 pg/mL.

What about the “Decrease in NE (sympatholysis)” value ([6]; BEST, ADRA2C Del genotypes) of the same compound?
The value was 153 pg/mL.

What about the “Decrease in NE (sympatholysis)” value ([6]; BEST, ADRA2C Ins homozygotes) of the same compound?
The value was 50 pg/mL.

What about the “Effect sizes, time to ACM or HF hospitalization and CV mortality or CV hospitalization” value ([6]; BEST, ADRB1 Arg389Arg subset in permanent AF) of the same compound?
The value was “exceeding 70%”.

What about the “Reduction in the development (risk) of AF vs. placebo” value ([6]; BEST, ADRB1 Arg389Arg, sinus rhythm at baseline) of the same compound?
The value was 74%.

What about the “Reduction in NE” value ([6]; BEST, {ADRA2C Del carrier and ADRB1 Arg389Arg} combination genotype) of the same compound?
Its value is 120 pg/mL.

What about the “Hazard ratio, ACM, bucindolol vs. placebo” value [6, 11] of the same compound?
The value was 0.50.

And the “Hazard ratio, CVM, bucindolol vs. placebo” value [6, 11]?
Its value is 0.40.

What about the “Hazard ratio, heart failure hospitalization burden, bucindolol vs. placebo” value [6, 11] of the same compound?
The value was 0.60.

What about the “Hazard ratio, ACM, bucindolol vs. placebo” value [6, 12] of the same compound?
The value was 1.04.

What about the “Hazard ratio, CVM, bucindolol vs. placebo” value [6, 12] of the same compound?
The value was 1.11.

And the “Hazard ratio, heart failure hospitalization burden, bucindolol vs. placebo” value [6, 12]?
The value was 1.19.
